Experimental data published in ChEMBL document CHEMBL1151896, “3D QSAR of novel estrogen-RGD peptide conjugates: getting insight into structural dependence of anti-osteoporosis activity and side effect of estrogen in ERT” (Bioorg Med Chem, 2009).
Numbered stars: 1 amine (or outer) side, 2 acyl side, 3 side chain; on linkers, the order of the positions; unused ones are H or OH. Bridge positions count the residues as written; N and C are the ends. Peptide text beside a SMILES is read from it. I, II: the chains in the order shown. * marks the point of attachment. Estradiol(3-OCH2CO,17-OSuc) = C[C@]12CC[C@@H]3c4ccc(OCC(=O)[*:1])cc4CC[C@H]3[C@@H]1CC[C@@H]2OC(=O)CCC(=O)[*:2]; Succinyl(O17-estradiol) = C[C@]12CC[C@@H]3c4ccc(O)cc4CC[C@H]3[C@@H]1CC[C@@H]2OC(=O)CCC(=O)*; Acetyl(estradiol-3-yloxy) = C[C@]12CC[C@@H]3c4ccc(OCC(=O)*)cc4CC[C@H]3[C@@H]1CC[C@@H]2O; X1 = C[C@]12CC[C@@H]3c4ccc(OCC(=O)*)cc4CC[C@H]3[C@@H]1CCC2=O

Columns and labels:
Mus musculus [1] = assay: Antiosteoporosis activity against ovariectomized ICR mouse assessed as serum ALP activity at 110.3 nmol/kg, po after 30 mins; assay type: functional
Mus musculus [2] = assay: Antiosteoporosis activity against ovariectomized ICR mouse assessed as femur length at 110.3 nmol/kg, po after 30 mins; assay type: functional
Mus musculus [3] = assay: Antiosteoporosis activity against ovariectomized ICR mouse assessed as femur ash weight at 110.3 nmol/kg, po after 30 mins; assay type: functional
Mus musculus [4] = assay: Toxicity in ovariectomized ICR mouse assessed as tail bleeding time at 110.3 nmol/kg, po for 30 mins; assay type: organism-based; conditions: in vivo, 0.5 h
Mus musculus [5] = assay: Toxicity in ovariectomized ICR mouse assessed as change in uterine weight at 110.3 nmol/kg, po after 4 weeks; assay type: organism-based; conditions: in vivo, 672 h
Mus musculus [6] = assay: Antiosteoporosis activity against ovariectomized ICR mouse assessed as serum phosphorous level at 110.3 nmol/kg, po after 30 mins; assay type: functional
Mus musculus [7] = assay: Antiosteoporosis activity against ovariectomized ICR mouse assessed as femur calcium content at 110.3 nmol/kg, po after 30 mins; assay type: functional
Mus musculus [8] = assay: Antiosteoporosis activity against ovariectomized ICR mouse assessed as serum calcium level at 110.3 nmol/kg, po after 30 mins; assay type: functional
Mus musculus [9] = assay: Toxicity in ovariectomized ICR mouse assessed as tail bleeding time at 110.3 nmol/kg, po for 90 mins; assay type: organism-based; conditions: in vivo, 1.5 h
Mus musculus [10] = assay: Antiosteoporosis activity against ovariectomized ICR mouse assessed as mineral content at 110.3 nmol/kg, po after 30 mins; assay type: functional
Mus musculus [11] = assay: Antiosteoporosis activity against ovariectomized ICR mouse assessed as dry femur weight at 110.3 nmol/kg, po after 30 mins; assay type: functional
Mus musculus [12] = assay: Antiosteoporosis activity against ovariectomized ICR mouse assessed as femur phosphorous content at 110.3 nmol/kg, po after 30 mins; assay type: functional
Mus musculus [13] = assay: Toxicity in ovariectomized ICR mouse assessed as effect on lung weight at 110.3 nmol/kg, po after 4 weeks; assay type: organism-based; conditions: in vivo, 672 h
Mus musculus [14] = assay: Toxicity in ovariectomized ICR mouse assessed as effect on kidney weight at 110.3 nmol/kg, po after 4 weeks; assay type: organism-based; conditions: in vivo, 672 h
Mus musculus [15] = assay: Toxicity in ovariectomized ICR mouse assessed as effect on liver weight at 110.3 nmol/kg, po after 4 weeks; assay type: organism-based; conditions: in vivo, 672 h
Mus musculus [16] = assay: Toxicity in ovariectomized ICR mouse assessed as effect on body weight at 110.3 nmol/kg, po after 4 weeks; assay type: organism-based; conditions: in vivo, 672 h
Mus musculus [17] = assay: Toxicity in ovariectomized ICR mouse assessed as effect on spleen weight at 110.3 nmol/kg, po after 4 weeks; assay type: organism-based; conditions: in vivo, 672 h

SMILES	Activity (Mus musculus [1])	Activity (Mus musculus [2])	Activity (Mus musculus [3])	Activity (Mus musculus [4])	Activity (Mus musculus [5])	Activity (Mus musculus [6])	Activity (Mus musculus [7])	Activity (Mus musculus [8])	Activity (Mus musculus [9])	Activity (Mus musculus [10])	Activity (Mus musculus [11])	Activity (Mus musculus [12])	Activity (Mus musculus [13])	Activity (Mus musculus [14])	Activity (Mus musculus [15])	Activity (Mus musculus [16])	Activity (Mus musculus [17])
C[C@]12CC[C@@H]3c4ccc(OCC(=O)N[C@@H](CCCNC(=N)N)C(=O)NCC(=O)N[C@@H](CC(=O)O)C(=O)N[C@@H](Cc5ccccc5)C(=O)O)cc4CC[C@H]3[C@@H]1CCC2=O (X1-RGDF-OH)	16.42 U/L	1.65 cm	33.85 mg	581 s	0.06 g	3.17 mM	56.96%	3.44 mM	576 s	0.59%	53.99 mg	20.32%	–	–	–	–	–
C[C@]12CC[C@@H]3c4ccc(OCC(=O)N[C@@H](CCCNC(=N)N)C(=O)NCC(=O)N[C@@H](CC(=O)O)C(=O)N[C@@H](CO)C(=O)O)cc4CC[C@H]3[C@@H]1CC[C@@H]2O ({Acetyl(estradiol-3-yloxy)}-RGDS-OH)	26.62 U/L	1.65 cm	–	582 s	0.064 g	–	–	3.33 mM	577 s	0.6%	–	–	–	–	–	–	–
C[C@]12CC[C@@H]3c4ccc(O)cc4CC[C@H]3[C@@H]1CCC2=O [ESTRONE]	27.97 U/L	1.65 cm	32.08 mg	411 s	0.114 g	3.13 mM	56.2%	3.35 mM	433 s	0.61%	53.03 mg	19.11%	–	–	–	–	–
C[C@]12CC[C@@H]3c4ccc(OCC(=O)N[C@@H](CCCNC(=N)N)C(=O)NCC(=O)N[C@@H](CC(=O)O)C(=O)N[C@@H](Cc5ccccc5)C(=O)O)cc4CC[C@H]3[C@@H]1CC[C@@H]2O ({Acetyl(estradiol-3-yloxy)}-RGDF-OH)	25.42 U/L	1.67 cm	33.99 mg	557 s	0.067 g	–	–	3.34 mM	560 s	0.6%	–	–	–	–	–	–	–
CC(C)[C@H](NC(=O)[C@H](CC(=O)O)NC(=O)CNC(=O)[C@H](CCCNC(=N)N)NC(=O)CCC(=O)O[C@H]1CC[C@H]2[C@@H]3CCc4cc(OCC(=O)N[C@@H](CCCNC(=N)N)C(=O)NCC(=O)N[C@@H](CC(=O)O)C(=O)N[C@H](C(=O)O)C(C)C)ccc4[C@H]3CC[C@]12C)C(=O)O (I: RGDV-OH / II: RGDV-OH; linker I:N-II:N via Estradiol(3-OCH2CO,17-OSuc))	19.94 U/L	1.66 cm	35.75 mg	591 s	0.059 g	2.84 mM	61.56%	3.17 mM	532 s	0.62%	56.46 mg	20.94%	Non-toxic	Non-toxic	Non-toxic	Non-toxic	Non-toxic
C[C@]12CC[C@@H]3c4ccc(O)cc4CC[C@H]3[C@@H]1CC[C@@H]2O [ESTRADIOL]	27.22 U/L	1.64 cm	–	417 s	0.108 g	–	–	3.34 mM	441 s	0.61%	–	–	–	–	–	–	–
CC(C)[C@H](NC(=O)[C@H](CC(=O)O)NC(=O)CNC(=O)[C@H](CCCNC(=N)N)NC(=O)[C@@H](NC(=O)[C@H](CC(=O)O)NC(=O)CNC(=O)[C@H](CCCNC(=N)N)NC(=O)COc1ccc2c(c1)CC[C@@H]1[C@@H]2CC[C@]2(C)C(=O)CC[C@@H]12)C(C)C)C(=O)O (X1-RGDVRGDV-OH)	13.27 U/L	1.66 cm	35.29 mg	582 s	0.059 g	3.22 mM	60.5%	3 mM	514 s	0.62%	55.39 mg	21.84%	Non-toxic	Non-toxic	Non-toxic	Non-toxic	Non-toxic
C[C@]12CC[C@@H]3c4ccc(OCC(=O)N[C@@H](CCCNC(=N)N)C(=O)NCC(=O)N[C@@H](CC(=O)O)C(=O)N[C@@H](CO)C(=O)O)cc4CC[C@H]3[C@@H]1CC[C@@H]2OC(=O)CCC(=O)N[C@@H](CCCNC(=N)N)C(=O)NCC(=O)N[C@@H](CC(=O)O)C(=O)N[C@@H](CO)C(=O)O (I: RGDS-OH / II: RGDS-OH; linker I:N-II:N via Estradiol(3-OCH2CO,17-OSuc))	19.61 U/L	1.64 cm	35.6 mg	580 s	0.05 g	2.99 mM	61.05%	3.22 mM	570 s	0.62%	55.22 mg	20.35%	Non-toxic	Non-toxic	Non-toxic	Non-toxic	Non-toxic
C[C@]12CC[C@@H]3c4ccc(OCC(=O)N[C@@H](CCCNC(=N)N)C(=O)NCC(=O)N[C@@H](CC(=O)O)C(=O)N[C@@H](CO)C(=O)O)cc4CC[C@H]3[C@@H]1CCC2=O (X1-RGDS-OH)	16.62 U/L	1.65 cm	34.38 mg	579 s	0.069 g	2.98 mM	57.76%	3.33 mM	568 s	0.6%	54.29 mg	20.44%	–	–	–	–	–
CC(C)[C@H](NC(=O)[C@H](CC(=O)O)NC(=O)CNC(=O)[C@H](CCCNC(=N)N)NC(=O)CCC(=O)O[C@H]1CC[C@H]2[C@@H]3CCc4cc(O)ccc4[C@H]3CC[C@]12C)C(=O)O ({Succinyl(O17-estradiol)}-RGDV-OH)	22.96 U/L	1.67 cm	34.7 mg	551 s	0.064 g	–	–	3.36 mM	560 s	0.61%	–	–	–	–	–	–	–
C[C@]12CC[C@@H]3c4ccc(O)cc4CC[C@H]3[C@@H]1CC[C@@H]2OC(=O)CCC(=O)N[C@@H](CCCNC(=N)N)C(=O)NCC(=O)N[C@@H](CC(=O)O)C(=O)N[C@@H](CO)C(=O)O ({Succinyl(O17-estradiol)}-RGDS-OH)	23.93 U/L	1.66 cm	–	575 s	0.063 g	–	59.14%	3.35 mM	561 s	0.6%	53.98 mg	–	–	–	–	–	–
CC(C)[C@H](NC(=O)[C@H](CC(=O)O)NC(=O)CNC(=O)[C@H](CCCNC(=N)N)NC(=O)COc1ccc2c(c1)CC[C@@H]1[C@@H]2CC[C@]2(C)[C@@H](O)CC[C@@H]12)C(=O)O ({Acetyl(estradiol-3-yloxy)}-RGDV-OH)	26.01 U/L	–	34.29 mg	569 s	0.064 g	–	–	3.32 mM	577 s	0.61%	–	–	–	–	–	–	–
C[C@]12CC[C@@H]3c4ccc(O)cc4CC[C@H]3[C@@H]1CC[C@@H]2OC(=O)CCC(=O)N[C@@H](CCCNC(=N)N)C(=O)NCC(=O)N[C@@H](CC(=O)O)C(=O)N[C@@H](Cc1ccccc1)C(=O)O ({Succinyl(O17-estradiol)}-RGDF-OH)	23.18 U/L	–	34.87 mg	576 s	0.06 g	–	58.06%	3.34 mM	568 s	0.61%	–	–	–	–	–	–	–
CC(C)[C@H](NC(=O)[C@H](CC(=O)O)NC(=O)CNC(=O)[C@H](CCCNC(=N)N)NC(=O)COc1ccc2c(c1)CC[C@@H]1[C@@H]2CC[C@]2(C)C(=O)CC[C@@H]12)C(=O)O (X1-RGDV-OH)	17.42 U/L	1.66 cm	33.99 mg	563 s	0.066 g	2.96 mM	57.24%	3.33 mM	571 s	0.61%	54.12 mg	20.08%	–	–	–	–	–
